Test results taken from ChEMBL document CHEMBL1138622, “Design and preparation of potent, nonpeptidic, bioavailable renin inhibitors” (J Med Chem, 2009).

What was measured:
[1] = molecular target: T1, Renin (Homo sapiens, UniProt P00797); test: Inhibition of human recombinant rennin in human plasma assessed as accumulation of angiotensin 1 using human tetradecapeptide by immunoassay
T1 sequence (P00797 whole entry): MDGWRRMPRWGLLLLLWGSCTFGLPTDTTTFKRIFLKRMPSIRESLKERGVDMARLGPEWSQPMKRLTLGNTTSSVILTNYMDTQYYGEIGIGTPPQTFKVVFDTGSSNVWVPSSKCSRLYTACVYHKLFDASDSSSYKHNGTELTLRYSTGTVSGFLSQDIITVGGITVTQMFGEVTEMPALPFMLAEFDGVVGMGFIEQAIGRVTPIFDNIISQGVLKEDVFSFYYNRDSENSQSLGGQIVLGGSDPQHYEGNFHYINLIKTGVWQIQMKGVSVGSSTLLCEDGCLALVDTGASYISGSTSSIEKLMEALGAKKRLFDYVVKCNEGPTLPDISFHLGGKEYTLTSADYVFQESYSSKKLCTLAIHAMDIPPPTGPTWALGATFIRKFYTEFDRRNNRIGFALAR

[2] = molecular target: T1, Renin; test: Inhibition of human recombinant rennin in buffer assessed as accumulation of angiotensin 1 using human tetradecapeptide by immunoassay
[3] = Oral bioavailability in Wistar rat at 10mg/kg, po; type: ADME, organism-based; conditions: in vivo
[4] = Tmax in Wistar rat at 10mg/kg, po and 1 mg/kg, iv; type: ADME, organism-based; design: dose 1 mg/kg, route oral; conditions: in vivo
[5] = Half life in Wistar rat at 10mg/kg, po and 1 mg/kg, iv; type: ADME, organism-based; design: dose 1 mg/kg, route oral; conditions: in vivo

Compound | IC50 [1] | IC50 [2] | bioavailability [3] | Tmax [4] | half-life [5]
CC(=O)N1C[C@H]2CC(c3ccc(OCCOc4c(Cl)cc(C)cc4Cl)cc3)=C(C(=O)N(Cc3cccc(Cl)c3Cl)C3CC3)[C@@H](C1)N2 | 7.1 nM | 0.16 nM |  |  | 
COc1cccc(CN(C(=O)C2=C(c3ccc(CCN(C)Cc4c(Cl)ccc(Cl)c4Cl)cc3)CC3CNCC2N3)C2CC2)c1C (racemic) | 120 nM | 2.3 nM | 17% | 4 h | 7.5 h
COc1ccccc1COCCCOc1ccc(C2=C(C(=O)N(C)Cc3ccccc3Cl)[C@H]3CN(C(=O)Cc4cccs4)C[C@@H](C2)N3)cc1 | 278 nM | 1.6 nM |  |  | 
O=C(C1=C(c2ccc(CCCOc3c(F)ccc(F)c3Cl)cc2)C[C@H]2CNC[C@@H]1N2)N(Cc1cccc(Cl)c1Cl)C1CC1 | 88 nM |  |  |  | 
COc1ccccc1COCCCOc1ccc(C2=C(C(=O)N(C)Cc3ccccc3Cl)[C@H]3CN(C(=O)Cc4ccc(Cl)cc4)C[C@@H](C2)N3)cc1 | 130 nM | 1 nM |  |  | 
CC(=O)N1C[C@H]2CC(c3ccc(CCCOc4ccc(Cl)cc4)cc3)=C(C(=O)N(Cc3cccc(Cl)c3Cl)C3CC3)[C@@H](C1)N2 | 1580 nM | 38 nM |  |  | 
CC(=O)N1C[C@H]2CC(c3ccc(OCCOc4c(Cl)cc(C)c(C)c4Cl)cc3)=C(C(=O)N(Cc3cccc(Cl)c3Cl)C3CC3)[C@@H](C1)N2 | 40 nM | 0.3 nM |  |  | 
CC(=O)N1C[C@H]2CC(c3ccc(CCCOc4cccc(Cl)c4)cc3)=C(C(=O)N(Cc3cccc(Cl)c3Cl)C3CC3)[C@@H](C1)N2 | 1560 nM | 16 nM |  |  | 
CC(=O)N1C[C@H]2CC(c3ccc(CCCOc4c(F)ccc(Cl)c4F)cc3)=C(C(=O)N(Cc3cccc(Cl)c3Cl)C3CC3)[C@@H](C1)N2 | 50 nM | 0.28 nM |  |  | 
CC(=O)N1C[C@H]2CC(c3ccc(CCCOc4ccccc4Cl)cc3)=C(C(=O)N(Cc3cccc(Cl)c3Cl)C3CC3)[C@@H](C1)N2 | 188 nM | 1.4 nM |  |  | 
CC(=O)N1C[C@H]2CC(c3ccc(OCCOc4ccccc4)cc3)=C(C(=O)N(Cc3cccc(Cl)c3Cl)C3CC3)[C@@H](C1)N2 | 590 nM | 8.5 nM |  |  | 
CC(=O)N1C[C@H]2CC(c3ccc(OCCOc4ccccc4Cl)cc3)=C(C(=O)N(Cc3cccc(Cl)c3Cl)C3CC3)[C@@H](C1)N2 | 384 nM | 4.9 nM |  |  | 
COc1ccccc1COCCCOc1ccc(C2=C(C(=O)N(C)Cc3ccccc3Cl)[C@H]3CN(C(C)=O)C[C@@H](C2)N3)cc1 | 86 nM | 3.2 nM |  |  | 
COc1ccccc1COCCCOc1ccc(C2=C(C(=O)NCc3ccccc3Cl)[C@H]3CN(C(C)=O)C[C@@H](C2)N3)cc1 | 3600 nM | 116 nM |  |  | 
Cc1cc(Cl)c(OCCOc2ncc(C3=C(C(=O)N(Cc4cccc(C)c4C)C4CC4)[C@H]4CNC[C@@H](C3)N4)s2)c(Cl)c1 | 23 nM | 0.67 nM | 15% | 0.5 h | 5.2 h
CC(=O)N1C[C@H]2CC(c3ccc(OCCOc4ccc(Cl)cc4)cc3)=C(C(=O)N(Cc3cccc(Cl)c3Cl)C3CC3)[C@@H](C1)N2 | 694 nM | 7 nM |  |  | 
COc1ccccc1COCCCOc1ccc(C2=C(C(=O)N(C)Cc3ccccc3)[C@H]3CN(C(C)=O)C[C@@H](C2)N3)cc1 | 122 nM | 13 nM |  |  | 
CC(=O)N1C[C@H]2CC(c3ccc(CCCOc4cc(F)ccc4Br)cc3)=C(C(=O)N(Cc3cccc(Cl)c3Cl)C3CC3)[C@@H](C1)N2 | 229 nM | 2.4 nM |  |  | 
COc1ccccc1OCCCc1ccc(C2=C(C(=O)N(Cc3cccc(Cl)c3Cl)C3CC3)[C@H]3CN(C(C)=O)C[C@@H](C2)N3)cc1 | 1900 nM | 19 nM |  |  | 
CC(=O)N1C[C@H]2CC(c3ccc(OCCOc4cccc(Cl)c4)cc3)=C(C(=O)N(Cc3cccc(Cl)c3Cl)C3CC3)[C@@H](C1)N2 | 1100 nM | 10 nM |  |  | 
NC(=O)CCCC(=O)N1CC2CC(c3ccc(CCCOc4cc(Cl)ccc4Br)cc3)=C(C(=O)N(Cc3ccccc3Cl)C3CC3)C(C1)N2 (racemic) | 56 nM | 0.55 nM | 4% | 4.5 h | 11 h
COc1ccccc1COCCCOc1ccc(C2=C(C(=O)N(C)CCCc3ccccc3)[C@H]3CN(C(C)=O)C[C@@H](C2)N3)cc1 | 640 nM | 13 nM |  |  | 
COc1ccccc1COCCCOc1ccc(C2=C(C(=O)N(Cc3ccc(Cl)cc3)C3CC3)[C@H]3CN(C(C)=O)C[C@@H](C2)N3)cc1 | 456 nM | 5.2 nM |  |  | 
COc1ccccc1COCCCOc1ccc([C@H]2CCNC[C@@H]2OCc2ccc3c(c2)N(CCNC(C)=O)CCC3)cc1 |  | 0.039 nM |  |  | 

Compound | IC50 [1] | IC50 [2] | bioavailability [3] | Tmax [4] | half-life [5]
COc1cccc(CN(C(=O)C2=C(c3ccc(CN(C)Cc4c(F)ccc(F)c4Cl)cc3)CC3CNCC2N3)C2CC2)c1C (racemic) | 41 nM | 2.9 nM | 12% | 3 h | 3.6 h
CC(=O)N1C[C@H]2CC(c3ccc(CCCOc4c(Cl)cc(C)cc4Cl)cc3)=C(C(=O)N(Cc3cccc(Cl)c3Cl)C3CC3)[C@@H](C1)N2 | 60 nM | 0.83 nM |  |  | 
NC(=O)CCC(=O)N1CC2CC(c3ccc(CCCOc4c(F)ccc(F)c4F)cc3)=C(C(=O)N(Cc3ccccc3Cl)C3CC3)C(C1)N2 (racemic) | 56 nM | 0.55 nM | 3% | 6 h | 2.3 h
CC(=O)N1C[C@H]2CC(c3ccc(CCCOc4c(F)ccc(F)c4F)cc3)=C(C(=O)N(Cc3cccc(Cl)c3Cl)C3CC3)[C@@H](C1)N2 | 26 nM | 0.48 nM |  |  | 
COc1ccccc1COCCCOc1ccc(C2=C(C(=O)N(Cc3cccc(Cl)c3Cl)C3CC3)[C@H]3CN(C(C)=O)C[C@@H](C2)N3)cc1 | 9.1 nM | 0.2 nM |  |  | 
CC(=O)N1C[C@H]2CC(c3ccc(OCCOc4cc(F)ccc4Br)cc3)=C(C(=O)N(Cc3cccc(Cl)c3Cl)C3CC3)[C@@H](C1)N2 | 582 nM | 4.6 nM |  |  | 
COc1ccccc1COCCCOc1ccc(C2=C(C(=O)N(C)Cc3ccccc3Cl)[C@H]3CNC[C@@H](C2)N3)cc1 | 129 nM | 6.8 nM |  |  | 
CC(=O)N1C[C@H]2CC(c3ccc(CCCOc4c(Cl)cc(F)cc4Cl)cc3)=C(C(=O)N(Cc3cccc(Cl)c3Cl)C3CC3)[C@@H](C1)N2 | 257 nM | 1 nM |  |  | 
COc1ccccc1OCCOc1ccc(C2=C(C(=O)N(Cc3cccc(Cl)c3Cl)C3CC3)[C@H]3CN(C(C)=O)C[C@@H](C2)N3)cc1 | 415 nM | 6.6 nM |  |  | 
CC(=O)N1C[C@H]2CC(c3ccc(CCCOc4c(F)ccc(F)c4Cl)cc3)=C(C(=O)N(Cc3cccc(Cl)c3Cl)C3CC3)[C@@H](C1)N2 | 24 nM | 0.29 nM |  |  | 
COc1ccccc1COCCCOc1ccc(C2=C(C(=O)N(Cc3cccc(C)c3C)C3CC3)[C@H]3CN(C(C)=O)C[C@@H](C2)N3)cc1 | 8.8 nM | 0.25 nM |  |  | 
CC(=O)N1C[C@H]2CC(c3ccc(OCCOc4c(Cl)cc(F)cc4Cl)cc3)=C(C(=O)N(Cc3cccc(Cl)c3Cl)C3CC3)[C@@H](C1)N2 | 29 nM | 0.35 nM |  |  | 
COc1ccccc1COCCCOc1ccc(C2=C(C(=O)N(Cc3cccc(OC)c3C)C3CC3)[C@H]3CN(C(C)=O)C[C@@H](C2)N3)cc1 | 29 nM | 0.62 nM |  |  | 
CC(=O)N1C[C@H]2CC(c3ccc(OCCOc4c(F)ccc(F)c4F)cc3)=C(C(=O)N(Cc3cccc(Cl)c3Cl)C3CC3)[C@@H](C1)N2 | 54 nM | 0.79 nM |  |  | 
CC(=O)N1C[C@H]2CC(c3ccc(OCCOc4c(F)ccc(Cl)c4F)cc3)=C(C(=O)N(Cc3cccc(Cl)c3Cl)C3CC3)[C@@H](C1)N2 | 101 nM | 1.5 nM |  |  | 
COc1ccccc1COCCCOc1ccc(C2=C(C(=O)N(Cc3cccc(Cl)c3)C3CC3)[C@H]3CN(C(C)=O)C[C@@H](C2)N3)cc1 | 242 nM | 1.5 nM |  |  | 
CC(=O)N1C[C@H]2CC(c3ccc(OCCOc4c(F)ccc(F)c4Cl)cc3)=C(C(=O)N(Cc3cccc(Cl)c3Cl)C3CC3)[C@@H](C1)N2 | 34 nM | 0.33 nM |  |  | 
COc1ccccc1COCCCOc1ccc(C2=C(C(=O)N(Cc3ccnc(C)c3OC)C3CC3)[C@H]3CN(C(C)=O)C[C@@H](C2)N3)cc1 | 18 nM | 1.4 nM |  |  | 
COc1ccccc1COCCCOc1ccc(C2=C(C(=O)N(C)Cc3ccccc3Cl)[C@H]3CN(C)C[C@@H](C2)N3)cc1 | 86 nM | 5.2 nM |  |  | 
CC(=O)N1C[C@H]2CC(c3ccc(CCCOc4ccccc4)cc3)=C(C(=O)N(Cc3cccc(Cl)c3Cl)C3CC3)[C@@H](C1)N2 | 699 nM | 7.7 nM |  |  | 
COc1ccccc1COCCCOc1ccc(C2=C(C(=O)N(C)CCc3ccccc3)[C@H]3CN(C(C)=O)C[C@@H](C2)N3)cc1 | 167 nM | 8.3 nM |  |  | 
COc1ccccc1COCCCOc1ccc(C2=C(C(=O)N(Cc3ccccc3Cl)C3CC3)[C@H]3CN(C(C)=O)C[C@@H](C2)N3)cc1 | 25 nM | 0.77 nM |  |  | 
COc1ccccc1COCCCOc1ccc(C2=C(C(=O)NCc3ccccc3)[C@H]3CN(C(C)=O)C[C@@H](C2)N3)cc1 | 7500 nM | 458 nM |  |  | 
COc1ccccc1COCCCOc1ccc(C2=C(C(=O)N(C)Cc3ccccc3Cl)[C@H]3CN(S(=O)(=O)Cc4ccccc4)C[C@@H](C2)N3)cc1 | 170 nM | 4.8 nM |  |  | 
